Here are results for three molecules from patent US20080206198A1, “Compounds and methods for pharmico-gene therapy of epithelial sodium channel associated disorders” (priority 2003, published 2008).

In data set [1] the test system is primary human fibroblasts. The data set is classed as cell-based. Particulars: confluent primary human fibroblasts treated prior to rAAV infection; FACS at 96 hours post-infection. Here is the method: Initial studies were performed in confluent primary human fibroblasts since dose titrations and toxicity could be quickly assessed. Selected agents were used to treat fibroblast monolayers prior to rAAV infection. rAAV transduction was assessed at 96 hours post-infection by FACS analysis, and the percentage of dead cells was simultaneously assessed by incorporation of propidium iodide.
These tripeptides are structurally related to chloroquine but have different lipid solubility and specificity for cysteine proteases (Seglen, 1983). These molecules decrease endosomal degradation of molecules by a mechanism different than altering pH.

For another data set, the system named is mice. The experiment in a line: Toxicity of proteasome inhibitors in mice (intra-tracheal and IV). The data set is classed as in vivo, mouse. The note with it: 10, 100 and 1000 fold higher doses than used in polarized airway cells. Here is the method:
Long-term enhancement of rAAV transduction by proteasome inhibitor in vivo. To evaluate the potential utility of proteasome inhibitors for in vivo gene therapy, both the toxicity and efficacy of these agents for in vivo rAAV mediated gene transfer in the mouse lung was tested. To assess the toxicity of these proteasome inhibitors in mice, 10, 100, and 1000 fold higher effective doses of LLnL or Z-LLL were administered than used to induce gene transfer in polarized airway cells, using both intra-tracheal and systemic (IV) delivery. No toxicity was indicated by histologic evaluation of the lung and liver or was evidenced by the death of animals. To investigate whether these proteasome inhibitors could improve rAAV transduction in vivo, AV.LacZ (5×10^10 particles) was delivered either alone or in the presence of 400 μM Z-LLL by intranasal administration. Mouse lungs were harvested at 3, 10 and 150 days post-infection to evaluate short and long term effects. […] Targeted transgene expression was predominantly confined to the conducting airways, rather than in the parenchyma. Alveolar cells were rarely transduced. […] The range of transgene expression in distal and proximal airways was 0 to 4% and 5 to 18%, respectively.

In data set [2] the test system is polarized airway epithelia. The experiment in a line: Apical rAAV (AAV2 and AAV5 capsid) infection of polarized airway epithelia with agent combinations. Format: cell-based, human. The note with it: for concentration at which transduction was enhanced: polarized airway epithelial cells. Here is the method:
C. To determine whether combinations of agents that enhance rAAV transduction efficiency have synergistic or additive effects when used in combination, cells were contacted with the proteasome modulator, doxorubicin, and the proteasome inhibitor Z-LLL or LLnL. Different AAV vectors were tested, including splicing vectors and pseudotyped rAAV. Viral stocks utilized were as follows: Av2RSVluc, 5×10^8 particle/μl; Av2RSVlucCap5 (also referred to as Av2/5 CMVLuc), 2×10^9 particle/μl; Av2CMVluc, 1.3×10^9 particle/μl; and Av2CMVlucCap5, 1.1×109 particle/μl. Combinations of agents were compared to the agents used alone to determine the efficiency of transduction. LLnL was used at 40, 200 or 400 μM, Z-LLL at 4 μM and doxorubicin at 0.5 or 1 μM when employed alone. When a combination of LLnL and doxorubicin was used, LLnL was used at 4, 10, 20, 40, 200 or 400 μM and doxorubicin at 1 or 5 μM. The apical surface of polarized airway epithelia, HeLa cells or ferret fibroblast was contacted with the agents and rAAV (5×10^9 particles per well).

A further data set has as its system ENaC. Nature of the data set: Amiloride-sensitive Isc time course in polarized CuFi epithelia. Particulars: 1 to 14 days. Format: cell-based, human.
For data set [3], the system named is polarized human airway epithelial cells. Format: cell-based. As to the method:
Primary culture of human bronchial epithelia and reagents utilized. Primary human airway epithelial cells were collected by enzymatic digestion of bronchial samples from lung transplants, as previously described (Kondo et al., 1991; Zabner et al., 1996). Isolated primary airway cells were seeded at a density of 5×10^5 cells/cm^2 onto collagen-coated Millicell-HA culture inserts (Millipore Corp., Bedford, Mass.). Primary cultures were grown at the air-liquid interface for more than 2 weeks, by which time differentiation into a mucociliary epithelium occurs. The culture medium, used to feed only the basolateral side of the cells, contained 49% DMEM, 49% Ham's F12 and 2% Ultraser G (BioSepra, Cedex, France). Dimethyl Sulphoxide (DMSO), camptothecin (Camp), etoposide (Etop), aphidicolin (Aphi), hydroxyurea (HU) and genistein (Geni) were purchased from Sigma (St. Louis, Mo.). Tripeptidyl aldehyde proteasome inhibitors N-Acetyl-L-Leucyl-L-Leucyl-Norleucine (LLnL) and benzyloxycarbonyl-L-leucyl-L-leucyl-L-leucinal (Z-LLL) were purchased from Calbiochem-Novabiochem Corporation (La Jolla, Calif.). Ubiquitin ligase (E3) inhibitors were obtained from Bachem Bioscience Inc. (King of Prussia, Pa.). Anti-AAV capsid monoclonal antibody (Anti-VP1, 2 and 3) was purchased from American Research Products (Belmont, Mass.) and anti-ubiquitin antibody was purchased from Santa Cruz Biotechnology Inc. (Santa Cruz, Calif.).
Transduction of polarized airway epithelial cells and primary human fibroblasts. rAAV infection of fully differentiated bronchial cells was performed as described in Duan et al. (1998). For infections from the apical surface of the airway cells, 5 μl rAAV was mixed with 50 μl of culture media and applied directly onto the apical compartment of Millicell inserts (MOI=10,000 particles/cell). During apical infection, the basolateral side of the Millicell was continuously bathed in culture media. Gene transfer to the basal side was performed by inverting Millicell inserts and applying viral vector to the bottom of the supporting filter membrane in a 50 μl volume for 2 hours. Subsequently, Millicell inserts were returned to the upright position, in the continued presence of the original viral inoculum plus an additional 450 μl of media. For both apical and basolateral infections, rAAV containing media was removed after 24 hours and replaced with either fresh culture media (for the basal side) or exposed to air (for the apical side). To test the effect of different agents on the efficiency of AAV transduction in polarized airway cells, 1 μl of each solution was mixed with AAV prior to infection of airway epithelia. Agents were usually presented during the 24 hours AAV infection period unless indicated otherwise. Most of the agents were dissolved in DMSO except for hydroxyurea (dissolved in phosphate buffered saline), H-Leu-Ala-OH (dissolved in 0.9% glacial acetic acid) and H-His-Ala-OH (dissolved in 50% methanol). The working concentrations of the agents were as follows: 0.1 μM camptothecin, 10 μM etoposide, 5 μg/ml aphidicolin, 40 mM hydroxyurea, 50 μM genistein, 40 μM LLnL and 4 μM Z-LLL. When the ubiquitin ligase (E3) inhibitors (H-Leu-Ala-OH and H-His-Ala-OH) were used, airway cells were pretreated with a combination of both inhibitors at a final concentration of 2 mM for 60 minutes prior to infection, followed by the continued presence of inhibitor (0.2 mM) during the entire 24 hours infection period from the basolateral surface. Studies involving EGTA treatment were performed by transiently treating the apical membrane of polarized airway epithelia with 3 mM EGTA in water for 10 minutes (Duan et al., 1998). Following hypotonic EGTA treatment, cultures were washed twice with culture medium and infected with rAAV in the presence or absence of 40 μM LLnL. Human primary fibroblast cells (P4) were maintained in 10% fetal bovine serum (FBS), 1% penicillin and streptomycin, and 89% DMEM. […]

Peptide text beside a SMILES is read from it. * marks the point of attachment. Cbz = O=C(OCc1ccccc1)*

As to `CC(C)C[C@@H](C=O)NC(=O)[C@H](CC(C)C)NC(=O)[C@H](CC(C)C)NC(=O)OCc1ccccc1` [Z-LLL, N-carbobenzoxyl-L-leucinyl-L-leucinyl-L-leucinal] (Cbz-Leu-Leu-Leu-aldehyde), the rAAV transduction result in data set [1] was “significantly increased rAAV transduction”. In addition, the “toxicity (histology of lung and liver, death of animals)” value with mice is “No toxicity”.

Regarding `COc1cccc2c1C(=O)c1c(O)c3c(c(O)c1C2=O)C[C@@](O)(C(=O)CO)C[C@@H]3O[C@H]1C[C@H](N)[C@H](O)[C@H](C)O1` [doxorubicin], the “induction of AAV2 and AAV5 apical infection of polarized cells” value in data set [2] (in the presence of doxorubicin) is given as 200 to 600 fold. The “concentration at which transduction was enhanced” value in data set [2] worked out at 5 µM. For the same molecule, in the data set with ENaC, the “ENaC Isc time course” value is on record as “gradual decline in ENaC Isc”.

For the molecule “N-acetyl-L-leucinyl-L-leucinal-L-norleucinal [LLnL]”, the rAAV transduction entry in data set [1] is “significantly increased rAAV transduction”. Also, the “augmentation in transgene expression” value in data set [3] (applied to the serosal surface along with rAAV, 2 days post infection, 40 μM LLnL) was “greater than 200 fold”. The “time of peak augmentation in AAV transduction” value in data set [3] (co-administration with rAAV to the mucosal surface) is recorded as 22 days post-infection. Also, the “toxicity of continual administration” value in data set [3] (continual administration after basolateral infection) was “toxic to cells”. In addition, the “time of transient peak in gene expression” value in data set [3] (rAAV infection from the serosal surface) came to 72 hours post-infection. Also, the “toxicity (histology of lung and liver, death of animals)” value in the data set on mice was “No toxicity”. For the same molecule, in data set [2], the “concentration at which transduction was enhanced” value was determined as 40 µM.
